Test systems include SK-MEL-5 melanoma; SF-295 CNS; SF-539 CNS; NCI-H226 lung; HCC-2998 colon; DLD-1 colon; SNB-19 CNS; TK-10 renal; SR leukemia; DU-145 prostate.
Experiment in all cases: DTP human tumour cell line panel, 48 h

Among the data in PubChem BioAssay (NCI) are TGI and GI50 values, retold here.

Each structure is given as a SMILES string. Where “and” joins values, the source holds several entries; their conditions need not be identical. Equal entries are not always repeated.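 1) Cells in 96-well plates. 2) Compound, 48 h, 5 concentrations. 3) Linear interpolation between surrounding doses. 4) Unreached endpoint = highest concentration. GI50 is the concentration that inhibits growth by half. TGI: concentration producing complete growth inhibition.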 Where only a bound is given, the exact number is not on record here.

By TGI is commonly meant the concentration at which net growth stops. A low value points to greater sensitivity of the cells. As for `CN(c1ccccc1)c1c(-c2ccccc2)c(=O)oc2c1ccc1occc12`, the TGI is more than 100 µM in the assay with SK-MEL-5 melanoma; more than 100 µM with SF-295 CNS; more than 100 µM with SF-539 CNS; 2.85 µM in the assay on NCI-H226 lung; more than 100 µM in the assay on HCC-2998 colon; more than 100 µM in the assay with DLD-1 colon. In addition, the TGI in the assay on SNB-19 CNS was more than 100 µM.

On to `COc1cccc2c1C(=O)c1c(O)c3c(c(O)c1C2=O)C[C@](O)(C(=O)CO)CC3OC1CC(N)C(OC2CCCCO2)C(C)O1` (stereo partly drawn), for which the TGI in the assay with SK-MEL-5 melanoma was determined as 1.34 µM; in the assay on SF-295 CNS, 0.672 µM; with SF-539 CNS, 1.41 µM; with NCI-H226 lung, 0.434 µM; in the assay on HCC-2998 colon, 3.25 µM; in the assay on DLD-1 colon it was 12.5 µM. In addition, in the assay on SNB-19 CNS, the TGI amounted to 4.16 µM.

With `O=C(c1ccccc1)c1ccc2c(c1)N=C(c1ccc(Cl)c(Cl)c1)CC(c1ccc3ccccc3c1)N2` (stereo not drawn), the TGI in the assay on SK-MEL-5 melanoma, in the assay on SF-295 CNS, in the assay on SF-539 CNS, in the assay on NCI-H226 lung, with TK-10 renal and with HCC-2998 colon was more than 100 µM in each case. The TGI with DLD-1 colon, with SNB-19 CNS and in the assay on SR leukemia was more than 100 µM each time.

As usually defined, the GI50 is the concentration at which growth is held to half of that of the control. Take `O=C1/C(=C/c2ccc(Cl)c(Cl)c2)CN(C(=O)CCN2CCOCC2)C/C1=C\c1ccc(Cl)c(Cl)c1`: the TGI was 0.148 µM with DU-145 prostate; 4.55 µM and 4.15 µM in the assay on NCI-H226 lung; 3.56 µM and 2.08 µM in the assay on HCC-2998 colon; 0.409 µM and 0.785 µM with DLD-1 colon. In addition, the GI50 in the assay with HCC-2998 colon is 0.773 µM; in the assay with DLD-1 colon, 0.245 µM.

In the case of `O=c1c2cc(Cl)ccc2n2nnc3ccc(NCCNCCO)c1c32`, the TGI with SK-MEL-5 melanoma amounted to 2.86 µM; with DU-145 prostate, 8.91 µM; with SF-295 CNS, 1.38 µM; with SF-539 CNS it was 3.32 µM; in the assay with NCI-H226 lung it was 4.13 µM; with TK-10 renal, 6.24 µM. For the same compound, the values for the TGI with HCC-2998 colon, in the assay on DLD-1 colon and in the assay on SNB-19 CNS were 2.7 µM, 5.76 µM and 5.07 µM, respectively.

Turning to `C#Cc1ccccc1C(=O)OC`, the TGI with SK-MEL-5 melanoma, in the assay with SF-295 CNS, in the assay on SF-539 CNS, in the assay with NCI-H226 lung, with TK-10 renal and with HCC-2998 colon was more than 100 µM in each case. For the same compound, the TGI with DLD-1 colon, with SNB-19 CNS and in the assay with SR leukemia was more than 100 µM in each case.

`CC1Oc2c(c(O)cc3oc(=O)cc(-c4ccccc4)c23)C(=O)C1C` (stereo not drawn): the TGI in the assay on SK-MEL-5 melanoma, in the assay on SF-295 CNS, in the assay with SF-539 CNS, in the assay with NCI-H226 lung, with TK-10 renal and in the assay on DLD-1 colon was more than 100 µM in each case.

As for `O.O=[Se](=O)(O)O.[NH-]C1CCCCC1[NH-].[Pt+2]` (stereo not drawn), the GI50 is 7.4 µM in the assay with SK-MEL-5 melanoma; 15.4 µM in the assay with SF-295 CNS; 25.3 µM with SF-539 CNS; 5.21 µM in the assay on NCI-H226 lung; more than 46.1 µM with HCC-2998 colon; 19 µM in the assay with DLD-1 colon. Also, the GI50 in the assay on SNB-19 CNS is more than 50.7 µM. Also, the TGI is 15.6 µM in the assay on SK-MEL-5 melanoma; more than 92.1 µM with SF-295 CNS; more than 100 µM in the assay on SF-539 CNS; 25.7 µM in the assay with NCI-H226 lung; more than 100 µM in the assay with HCC-2998 colon; more than 100 µM with DLD-1 colon. In the assay with SNB-19 CNS, the TGI was more than 100 µM.

In the case of `CC(C)(CN1CCCCC1)C(=O)CC(SCCS(=O)(=O)O)c1ccc(Cl)c(Cl)c1` (stereo not drawn), the TGI in the assay with SK-MEL-5 melanoma is 21.1 µM; in the assay with DU-145 prostate it was 23.4 µM; in the assay on SF-295 CNS it was 15.8 µM; with SF-539 CNS it was 6.23 µM; in the assay on NCI-H226 lung it was 39.1 µM; in the assay on TK-10 renal it was 18.9 µM. Besides, the TGI came to 26.2 µM in the assay with HCC-2998 colon, 23.1 µM in the assay with SNB-19 CNS and 6.38 µM in the assay with SR leukemia.

`C=C1C(=O)OC2C1CC1OC2C(C)CCC/C(C)=C\CCC1(C)O` (stereo not drawn): the TGI in the assay with SK-MEL-5 melanoma came out at 12.4 µM; in the assay on SF-295 CNS it was 85.2 µM; in the assay on SF-539 CNS, 48.7 µM; in the assay with NCI-H226 lung it was 51.3 µM; in the assay on HCC-2998 colon, 63.5 µM; in the assay with DLD-1 colon, 64.8 µM. Also, in the assay on SNB-19 CNS, the TGI stood at 103 µM.

For the compound `Clc1cccc(Cl)c1C1ON=C(c2ccccc2)N1C12CC3CC(CC(C3)C1)C2` (stereo not drawn), the TGI in the assay on SK-MEL-5 melanoma was 12.1 µM; with DU-145 prostate, more than 100 µM; with SF-295 CNS, more than 100 µM; with SF-539 CNS it was more than 100 µM; in the assay on NCI-H226 lung, more than 100 µM; with TK-10 renal it was more than 100 µM. Besides, the TGI with HCC-2998 colon, in the assay with SNB-19 CNS and in the assay on SR leukemia was more than 100 µM each time.

Consider `CCCCCCCCCCCOCCC1C(C(C)OCCN2CCCC2)OC2OC(C)(C)OC21` (stereo not drawn), for which the TGI is 3.22 µM in the assay on SK-MEL-5 melanoma; 11.3 µM in the assay on DU-145 prostate; 5.71 µM with SF-295 CNS; 3.68 µM in the assay on SF-539 CNS; 24.5 µM in the assay with NCI-H226 lung; 6.6 µM in the assay on TK-10 renal. For the same compound, the TGI in the assay with HCC-2998 colon turned out to be 4.83 µM; with SNB-19 CNS it was 13.7 µM; with SR leukemia it was 1.83 µM.

As for `CC1=C(C(=O)OC(C)C)C(c2cccc([N+](=O)[O-])c2)C(C(=O)OC(CO[N+](=O)[O-])CO[N+](=O)[O-])=C(C)N1` (stereo not drawn), the TGI is 4.13 µM in the assay with SK-MEL-5 melanoma; more than 100 µM in the assay on DU-145 prostate; 0.991 µM with SF-295 CNS; 16.3 µM in the assay with SF-539 CNS; 30.6 µM in the assay with NCI-H226 lung; more than 100 µM in the assay with TK-10 renal. Further, the TGI in the assay on HCC-2998 colon was 18.3 µM; in the assay with SNB-19 CNS it was 24.6 µM; in the assay with SR leukemia, 15.6 µM.

On to `Cc1ccc(N=Nc2cc(=O)[nH]c(=O)[nH]2)cc1C`, for which the TGI was found to be 30.4 µM in the assay on SK-MEL-5 melanoma; 27.9 µM in the assay on DU-145 prostate; 28.7 µM with SF-295 CNS; 27.6 µM with SF-539 CNS; 41.8 µM with NCI-H226 lung; 34.3 µM in the assay with TK-10 renal. The results for the TGI with HCC-2998 colon, in the assay on SNB-19 CNS and with SR leukemia were 19.9 µM, 35.2 µM and more than 100 µM, respectively.

For `Cc1nc(-c2ccc(Cl)cc2)cn2c1nc1ccccc12`, the TGI in the assay on SK-MEL-5 melanoma, in the assay with DU-145 prostate, with SF-295 CNS, with SF-539 CNS, in the assay on NCI-H226 lung and in the assay on TK-10 renal was more than 100 µM in each case. Further, the TGI in the assay with HCC-2998 colon, with SNB-19 CNS and in the assay with SR leukemia was more than 100 µM each time.

On to `COc1ccc(/C(Cl)=C(\C=O)c2ccc(Cl)cc2)cc1`, for which the TGI was 32.6 µM in the assay with SK-MEL-5 melanoma; 19.1 µM in the assay on SF-295 CNS; 48.1 µM in the assay with NCI-H226 lung; more than 100 µM in the assay with TK-10 renal; more than 100 µM with HCC-2998 colon; more than 100 µM in the assay on DLD-1 colon. Besides, the TGI worked out at 87.4 µM in the assay with SNB-19 CNS and 6.7 µM with SR leukemia.

As to `CCC[CH2][Ge]([CH2]CCC)([CH2]CCC)[O]C(=O)CCl`, the GI50 in the assay with SK-MEL-5 melanoma is 0.305 µM; in the assay with SF-539 CNS, 1.65 µM; with NCI-H226 lung it was 14.1 µM; in the assay on TK-10 renal, 3.4 µM; in the assay on HCC-2998 colon, 1.32 µM; in the assay on DLD-1 colon, 0.122 µM. The figures for the GI50 with SNB-19 CNS and in the assay on SR leukemia were 10.8 µM and 0.836 µM, respectively. Also, the TGI with SK-MEL-5 melanoma amounted to 3.36 µM; in the assay on SF-539 CNS, 6.85 µM; with NCI-H226 lung, 31.5 µM; with TK-10 renal, 17.7 µM; with HCC-2998 colon, 7.63 µM; with DLD-1 colon, 15.7 µM. For the same compound, the TGI in the assay with SNB-19 CNS came to 22.9 µM; in the assay with SR leukemia, 68.5 µM.

Consider `Nc1ncnc2c(C3OC(CO)C(O)C3O)c[nH]c12` (stereo not drawn), for which the GI50 was 0.0187 µM in the assay with SK-MEL-5 melanoma, less than 0.0117 µM in the assay with SF-539 CNS, 0.0189 µM in the assay on NCI-H226 lung and 0.0163 µM in the assay with TK-10 renal. Moreover, the total growth inhibition concentration (TGI) in the assay on DU-145 prostate is 0.113 µM; in the assay on SF-295 CNS, 1.02 µM; with SF-539 CNS, 0.0546 µM and 0.0374 µM; with NCI-H226 lung, 0.271 µM and 0.159 µM; with TK-10 renal, 0.471 µM; with HCC-2998 colon, 0.247 µM and 0.343 µM. The TGI came out at 0.0413 µM with DLD-1 colon, 8.69 µM in the assay with SNB-19 CNS and 0.272 µM in the assay with SR leukemia.

With `CCCS(=O)OC1C(C2COC(C)(C)O2)OC2OC(C)(C)OC21` (stereo not drawn), the TGI is 27.7 µM in the assay on SK-MEL-5 melanoma; 47.3 µM in the assay on DU-145 prostate; 36.1 µM with SF-295 CNS; 38.4 µM in the assay on SF-539 CNS; 46.2 µM in the assay with NCI-H226 lung; 31.3 µM in the assay on TK-10 renal. Also, the TGI with HCC-2998 colon was 32.6 µM; in the assay on SNB-19 CNS it was 30.8 µM; in the assay with SR leukemia, 4.34 µM.

As for `COc1ccc(C2=C(N)c3ccccc3C2=O)cc1`, the TGI with SK-MEL-5 melanoma, in the assay on DU-145 prostate, in the assay with SF-295 CNS, with SF-539 CNS, with NCI-H226 lung and in the assay with TK-10 renal was more than 100 µM each time. The TGI in the assay on HCC-2998 colon is more than 100 µM; in the assay on SNB-19 CNS, 64.3 µM; in the assay with SR leukemia, more than 100 µM.
